# System: protease
# Assay: Storage stability of protease in detergent formulation, residual proteolytic activity by AAPF-pNA assay
# Type: biochemical
# Details: 1% candidate compound, 1% protease in detergent formulation; stored 8 weeks at 30° C.; AAPF-pNA substrate, 25° C., pH 8.6, 410 nm
# Experimental: The storage stability of protease-containing detergents and cleaning agents was tested for use as enzyme stabilizers in the presence of candidate compounds. For this purpose, the candidate compounds were formulated in the presence of up to 1% (w/w) 1,2-propanediol in a detergent or cleaning agent formulation (see Table 2). The protease (1% PUR) was then added to the formulation, and the formulation stored for 8 weeks at 30° C.
# In parallel batches, the proteolytic activity of 1% protease was determined in 4% PG (1,2-propanediol), 85% matrix (see Table 1), then, each following incubation with 1% of the candidate compound (specified in w/w; QS 100% with water) determined in half of the batches in the formulation as indicated in Table 1 by the release of the chromophore para-nitroaniline from the succinyl-alanine-alanine-proline-phenylalanine para-nitroanilide substrate (AAPF-pNA; Bachem L-1400). The release of the pNA caused an increase in the absorbance at 410 nm, the progress over time of which is a measure of enzymatic activity. […]
# For evaluation, the initial values for the proteolytic activity of the agent in question were compared to the values determined after storage. […] The stabilizing effect of each tested compound is thus measured as a relative percentage increase in the residual protease activity.
smiles,measurement,value
CC(=O)[O-].CCn1cc[n+](C)c1 [1-ethyl-3-methylimidazolium acetate],Relative residual activity after incubation with KV,122%
